We go through eleven compounds from ChEMBL document CHEMBL3286127, “Aminoadamantanes with persistent in vitro efficacy against H1N1 (2009) influenza A” (J Med Chem, 2014).

Experiment [1] is described as follows: Antiviral activity against Influenza A virus (A/California/07/2009(H1N1)) infected in MDCK cells expressing M2 S31N mutant after overnight incubation by fluorescence-based miniplaque assay. In kind it is functional, cell-based.
Experiment [2] deals with Influenza A virus. Kind of experiment: Antiviral activity against Influenza A virus (A/Puerto Rico/8/34(H1N1)) infected in MDCK cells expressing M2 V27T/S31N mutant after overnight incubation by fluorescence-based miniplaque assay. The format is functional, organism-based, A/Puerto Rico/8/1934(H1N1).
In experiment [3] the test system is Influenza A virus. Kind of experiment: Antiviral activity against Influenza A virus A/WS/33(H1N1) infected in MDCK cells expressing M2 S31N mutant after overnight incubation by fluorescence-based miniplaque assay. The format is functional, organism-based.
The subject of experiment [4] is Matrix protein 2 (Influenza A virus (A/Udorn/307/1972(H3N2))), P0DOF8 [S31N]. In kind it is cell-based. As to conditions: Influenza A virus (A/California/08/2009(H1N1)); HEK293; 100 uM.

In the case of `NC1(c2ccccc2)C2CC3CC(C2)CC1C3` (stereo not given), the EC50 is 21 µM in experiment [1], less than 0.3 µM in the experiment with Influenza A virus [2] and 86 µM in the experiment on Influenza A virus [3].
Turning to `CC1(N)C2CC3CC(C2)CC1C3` (stereo not given), the EC50 worked out at 54 µM in experiment [1], 0.4 µM with Influenza A virus [2] and 19 µM in the experiment on Influenza A virus [3].
Compound `CCCC1(N)C2CC3CC(C2)CC1C3` (stereo not given) came in with an Activity in experiment [4] of 9.4%. The results for the EC50 (in experiment [1]; with Influenza A virus [2]; with Influenza A virus [3]) were 4.7 µM, 0.5 µM and 390 µM, respectively.
`CCCCCCC1(N)C2CC3CC(C2)CC1C3` (stereo not given): the half-maximal effective concentration (EC50) in experiment [1] was 0.13 µM; in the experiment with Influenza A virus [2], 0.07 µM; with Influenza A virus [3], 13 µM.
On to `CC(C)CC1(N)C2CC3CC(C2)CC1C3` (stereo not given), for which the figures for the 50% effective concentration (EC50) (in experiment [1]; with Influenza A virus [2]; with Influenza A virus [3]) were 8 µM, 0.3 µM and 210 µM, respectively.
The like results for `CC(N)C12CC3CC(CC(C3)C1)C2` (stereo not given) [RIMANTADINE] were, in that order, 110 µM, 3.3 µM and 310 µM.
On to `CCC1(N)C2CC3CC(C2)CC1C3` (stereo not given), for which the concentration giving a half-maximal response (EC50) was found to be 25 µM in experiment [1], 1.8 µM in the experiment on Influenza A virus [2] and 23 µM in the experiment on Influenza A virus [3].
In experiment [4], `NC1C2CC3CC(C2)CC1C3` (stereo not given) came in with an Activity of 16%. The EC50 in experiment [1] is 150 µM; in the experiment on Influenza A virus [2] it was 3.8 µM; in the experiment with Influenza A virus [3] it was 110 µM.
As to `NC12CC3CC(CC(C3)C1)C2` [AMANTADINE], the EC50 in experiment [1] was found to be 240 µM; in the experiment with Influenza A virus [2], 24 µM; in the experiment with Influenza A virus [3] it was 24 µM.
In the case of `CCCCC1(N)C2CC3CC(C2)CC1C3` (stereo not given), the results for the EC50 (in experiment [1]; in the experiment with Influenza A virus [2]; with Influenza A virus [3]) were 8.5 µM, 0.3 µM and 355 µM, respectively.
As to `NC1(Cc2ccccc2)C2CC3CC(C2)CC1C3` (stereo not given), the EC50 in experiment [1] is 8.6 µM; in the experiment with Influenza A virus [2], 1.2 µM; in the experiment with Influenza A virus [3] it was 280 µM.
